This is an account of results in patent US5770687A, “Comformationally constrained backbone cyclized somatostatin analogs” (Peptor Limited, priority 1996, dated 1998).

Like-named read-outs stand apart in the source and are kept apart here. Peptide text beside a SMILES is read from it.

Data set [1] concerns the target T1, rat SSTR-5 (Rattus norvegicus, UniProt P30938).
T1 sequence (P30938 1-363): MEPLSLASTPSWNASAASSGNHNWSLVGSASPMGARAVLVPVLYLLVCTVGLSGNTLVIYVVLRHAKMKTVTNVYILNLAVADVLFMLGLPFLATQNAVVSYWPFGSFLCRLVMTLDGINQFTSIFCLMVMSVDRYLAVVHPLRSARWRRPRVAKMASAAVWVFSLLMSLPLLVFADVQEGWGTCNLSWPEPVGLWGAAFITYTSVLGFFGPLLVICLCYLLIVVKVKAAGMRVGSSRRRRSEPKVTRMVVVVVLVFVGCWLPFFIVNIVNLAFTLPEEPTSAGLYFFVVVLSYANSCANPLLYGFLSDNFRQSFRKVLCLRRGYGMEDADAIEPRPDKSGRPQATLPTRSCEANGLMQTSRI
The conditions noted are these: Table 22; known SST analogs, literature values; read-out: IC50 value rSSTR 5; cited from earlier work.

A short description of data set [2]: In vitro biostability in human serum (HPLC). The conditions noted are these: 37° C. Type of data set: in vitro ADME. The method, then:
Analogs are tested for stability by their resistance to enzymatic degradation by incubation in serum or in tissue homogenate, separation of the proteins and recording of the peptide peaks by HPLC before and after incubation. […] These peaks are separated and characterized by mass spectrometry, N-terminal sequence and comparison to purified peptide peaks.
The assay was based on HPLC determination of peptide degradation as a function of time in serum at 37° C.

For a further data set, the target named is SSTR-3 (Homo sapiens, UniProt P32745). As to the kind of experiment: Radioligand binding, inhibition of 125I-Tyr11-SRIF binding to cloned SSTR-3. The procedure: (§1) The somatostatin analogs were tested for their potency in inhibition of the binding of ^125 I-Tyr^11 -SRIF (based on the method described by Raynor et. al., Molecular Pharmacology 43, 838-844, 1993) to membrane preparations expressing the transmembranal somatostatin receptors (SSTR-1,2,3,4 or 5). The receptor preparations used for these tests were either from the cloned receptors selectively and stably expressed in Chinese Hamster Ovary (CHO) cells or from cell lines naturally expressing the SSTRs. […] The binding reactions were filtered, the filters were washed and the bound radioactivity was counted in gamma counter. […] In order to validate positive signals of the binding tests, and to eliminate non-specific signals, samples of irrelevant peptides, such as GnRH, that were synthesized and handled using the same procedures, were tested in the same assays as negative control samples.

In data set [3] the target is T1, rat SSTR-5. The experiment in a line: Radioligand binding, inhibition of 125I-Tyr11-SRIF binding to cloned rat SSTR-5. The procedure: as §1
A short description of another data set: Lack of toxicity in rats. Type of data set: in vivo, rat. Conditions: for respiratory disturbances, stereotyped behavior, muscle tone: rats observed for 4 hours post administration. The procedure:
PTR 3013 was not toxic to the rats even with doses of 4 mg/kg. These two doses are several orders of magnitude higher than those needed to elicit the desired endocrine effect. The peptides dissolved in saline produced no untoward side effects on the central nervous system, cardiovascular system, body temperature, nor on the periphery of the animals.

A further data set addresses SSTR-2. As to the kind of experiment: Radioligand binding, inhibition of 125I-Tyr11-SRIF binding to cloned SSTR-2. The method, then: as §1
For the next data set, the target named is human SSTR-5 (Homo sapiens, UniProt P35346). The experiment in a line: Radioligand binding, inhibition of 125I-Tyr11-SRIF binding to cloned human SSTR-5. The conditions noted are these: cloned human receptor. The procedure: as §1
Data set [4] has as its system Growth Hormone (GH) release. As to the kind of experiment: Inhibition of growth hormone release in rats. Type of data set: in vivo, rat. Conditions: Sprague-Dawley male rats, 10 mg/kg subcutaneously, versus saline. The method, then: In vivo determination of the pharmacodynamic properties of cyclic peptide SST analogs was carried out in rats, according to known procedures. Inhibition of Growth Hormone (GH) release as a result of peptide administration was measured in Sprague-Dawley male rats. […] Time course profiles for GH release under constant experimental conditions were measured.
Adult male Sprague-Dawley rats, specific pathogen free (SPF), weighing 200-350 g, were maintained on a constant light-dark cycle (light from 8:00 to 20:00 h), temperature (21±3° C.), and relative humidity (55±10%). Laboratory chow and tap water were available ad libitum. On the day of the experiment, rats were anesthetized with pentobarbitone (50 mg/kg). […] A single blood sample (0.6 ml) was taken from the exposed cannulated jugular vein for the determination of the basal GH levels (-15 min.). Immediately thereafter the appropriate peptide treatment was administered. […] A physiological saline solution (0.9% NaCl) was administered as a control. All peptides were administered subcutaneously in a final volume of 0.2 ml. Further sampling was carried out at 15, 30, 60, and 90 minutes after peptide administration. […]
Rat growth hormone (rGH) [^125 I] levels were determined by means of a radioimmunoassay kit (Amersham). […] All samples were measured in duplicate.

A further data set relates to insulin release. The experiment in a line: Glucose induced insulin release in rats. Type of data set: in vivo, rat.
Another data set deals with plasma amylase release. As to the kind of experiment: Bombesin stimulated plasma amylase release in rats. Type of data set: in vivo, rat. The method, then:
(§2) Inhibition of either insulin or amylase release has been reported (Reisine and Bell, ibid.) to be highly correlated with affinity to the SST receptor subtype SSTR-5, while i inhibition of pituitary growth hormone (GH) release, pancreatic glucagon, and gastric acid secretion were SSTR-2 mediated. […] These doses were compared to the synthetic analog SMS-201 995 administered at a dose of 10 μg/kg.
(§3) Male Wister rats (weighing 200-220 g) were anaesthetized with pentobarbital (60 mg/kg) by the intraperitoneal (IP) route. The animals were allowed free access to food and water until 18 h before experiment, when all food (but not the water) was withdrawn. Furthermore the animals were housed in cages with wide mesh wire bottoms to prevent coprophagia (feeding on excrement).
(§4) After cannulation, a 0.7 ml sample of blood was drawn from the jugular vein, and transferred into an Eppendorf tube containing 20 IU heparin solution 5000 IU/ml. One minute later the peptides were administered subcutaneously (SC in 0.2 ml of 0.9% NaCl). Control rats were pretreated with 0.2 ml of 0.9% NaCl. At time 0 (5 min. after collection of baseline blood sample-1) a bombesin infusion (50 nmol/kg/hr) was started in all animals. Additional blood samples were collected at constant time intervals of 60, 90 and 120 min. during bombesin infusion.
(§5) Blood samples were collected into ice-cold tubes containing heparin (20 IU/ml) and were centrifuged (1500 g×10 min.). Plasma samples were frozen and kept at -20° C. until assayed for amylase and lipase.
Amylase levels were measured in plasma with the commercial (Raichem™) Amylase reagent.

The next data set has as its system plasma lipase release. As to the kind of experiment: Bombesin stimulated plasma lipase release in rats. Type of data set: in vivo, rat. The method, then: as §2, §3, §4, §5
Lipase levels were measured in plasma with a commercial kit (Randox™).

In data set [5] the test system is somatostatin receptors (SSTR-1,2,3,4 or 5). The experiment in a line: Radioligand binding assay, negative control peptides. The conditions noted are these: irrelevant peptides tested in the same assays. The procedure:
as §1

Where [6] appears, read: Table 21, inhibition of iodinated SRIF-14 binding, CHO cells, tested at 10^-6, 10^-7, 10^-8 M, read-out: IC50 SSTR-2.

Chain of SSTR-3 (P32745 whole entry, species assumed): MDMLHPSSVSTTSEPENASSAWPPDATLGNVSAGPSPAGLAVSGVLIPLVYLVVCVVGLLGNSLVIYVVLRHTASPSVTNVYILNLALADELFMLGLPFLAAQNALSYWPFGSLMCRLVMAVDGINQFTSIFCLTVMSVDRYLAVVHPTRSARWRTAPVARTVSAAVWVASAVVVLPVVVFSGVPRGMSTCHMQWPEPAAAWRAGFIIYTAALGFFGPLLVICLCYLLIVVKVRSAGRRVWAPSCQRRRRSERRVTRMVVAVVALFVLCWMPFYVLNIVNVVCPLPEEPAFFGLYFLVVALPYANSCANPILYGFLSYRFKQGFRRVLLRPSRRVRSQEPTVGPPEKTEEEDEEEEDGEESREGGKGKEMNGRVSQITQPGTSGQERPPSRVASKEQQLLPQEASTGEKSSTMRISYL
Chain of human SSTR-5 (P35346 whole entry): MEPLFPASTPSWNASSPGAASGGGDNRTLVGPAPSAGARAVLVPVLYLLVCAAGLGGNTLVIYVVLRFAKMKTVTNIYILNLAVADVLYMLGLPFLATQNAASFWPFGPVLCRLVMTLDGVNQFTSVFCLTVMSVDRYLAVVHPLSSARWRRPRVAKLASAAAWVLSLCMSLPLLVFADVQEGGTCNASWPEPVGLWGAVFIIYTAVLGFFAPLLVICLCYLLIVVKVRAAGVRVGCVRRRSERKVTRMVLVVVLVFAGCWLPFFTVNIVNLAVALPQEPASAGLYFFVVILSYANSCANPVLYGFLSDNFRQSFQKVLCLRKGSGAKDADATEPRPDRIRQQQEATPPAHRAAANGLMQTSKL

`C[C@@H](O)[C@@H]1NC(=O)[C@H](CCCCN)NC(=O)[C@@H](Cc2c[nH]c3ccccc23)NC(=O)[C@H](Cc2ccccc2)NC(=O)[C@@H](NC(=O)[C@H](N)Cc2ccccc2)CSSC[C@@H](C(=O)N[C@H](CO)[C@@H](C)O)NC1=O` [Octreotide, DPhe^5 -cyclo(Cys^6 -Phe^7 -DTrp^5 -Lys^9 -Thr^10 -Cys^11)-Thr^12 -ol]: on rat SSTR-5 [1], the IC50 is 0.2 nM.
Take `C[C@@H](O)[C@H](NC(=O)CN1CCNC(=O)CCN(C(=O)[C@H](N)Cc2ccccc2)CC(=O)N[C@@H](Cc2ccccc2)C(=O)N[C@H](Cc2c[nH]c3ccccc23)C(=O)N[C@@H](CCCCN)C(=O)N[C@@H]([C@@H](C)O)C1=O)C(N)=O` [PTR 3002] (HELM PEPTIDE1{[dF].[O=C(CN(CCC(=O)[*:3])[*:1])[*:2]].F.[dW].K.T.[O=C(CN(CCN[*:3])[*:1])[*:2]].T.[am]}$PEPTIDE1,PEPTIDE1,2:R3-7:R3$$$V2.0): in data set [2], the “in vitro biostability (peptide degradation as a function of time)” value is “as stable as Octreotide, is more stable than the corresponding non-cyclic structure, and is much more stable than SRIF”.
Consider `C[C@@H](O)[C@H](NC(=O)CN1CCCNC(=O)CN(C(=O)[C@H](N)Cc2ccccc2)CC(=O)N[C@@H](Cc2ccccc2)C(=O)N[C@H](Cc2c[nH]c3ccccc23)C(=O)N[C@@H](CCCCN)C(=O)N[C@@H]([C@@H](C)O)C1=O)C(N)=O` [PTR 3004], for which the figures for the IC50 on SSTR-3 and at rat SSTR-5 [3] were more than 10 µM and more than 2000 nM, respectively.
On to `C[C@@H](O)[C@H](NC(=O)CN1CCCNC(=O)CCN(C(=O)[C@H](N)Cc2ccccc2)CC(=O)N[C@@H](Cc2ccccc2)C(=O)N[C@H](Cc2c[nH]c3ccccc23)C(=O)N[C@@H](CCCCN)C(=O)N[C@@H]([C@@H](C)O)C1=O)C(N)=O` [PTR 3007] (HELM PEPTIDE1{[dF].[O=C(CN(CCC(=O)[*:3])[*:1])[*:2]].F.[dW].K.T.[O=C(CN(CCCN[*:3])[*:1])[*:2]].T.[am]}$PEPTIDE1,PEPTIDE1,2:R3-7:R3$$$V2.0), for which the IC50 is more than 10 µM at SSTR-3 and more than 2000 nM at rat SSTR-5 [3]. Further, the “respiratory disturbances, stereotyped behavior, muscle tone” value in “Lack of toxicity in rats” is recorded as “no respiratory disturbances”.
Take `CC(=O)N1CCCNC(=O)CCN(CC(=O)N[C@@H](Cc2ccccc2)C(=O)N[C@H](C(N)=O)[C@@H](C)O)C(=O)[C@H](CCCCN)NC(=O)[C@@H](Cc2c[nH]c3ccccc23)NC(=O)[C@H](Cc2ccccc2)NC(=O)C1` [PTR 3013] (HELM PEPTIDE1{[ac].[O=C(CN(CCCN[*:3])[*:1])[*:2]].F.[dW].K.[O=C(CN(CCC(=O)[*:3])[*:1])[*:2]].F.T.[am]}$PEPTIDE1,PEPTIDE1,2:R3-6:R3$$$V2.0): the IC50 at SSTR-2 (setting [6]) is more than 10000 nM. The “respiratory disturbances, stereotyped behavior, muscle tone” value in “Lack of toxicity in rats” was “no respiratory disturbances”. Besides, the toxicity entry in “Lack of toxicity in rats” (rats, doses of 4 mg/kg) is on record as “not toxic”.
For `C[C@@H](O)[C@H](NC(=O)[C@H](Cc1ccccc1)NC(=O)CN1CCNC(=O)CCN(C(=O)[C@H](N)Cc2ccccc2)CC(=O)N[C@@H](Cc2ccccc2)C(=O)N[C@H](Cc2c[nH]c3ccccc23)C(=O)N[C@@H](CCCCN)C1=O)C(N)=O` [PTR 3019] (HELM PEPTIDE1{[dF].[O=C(CN(CCC(=O)[*:3])[*:1])[*:2]].F.[dW].K.[O=C(CN(CCN[*:3])[*:1])[*:2]].F.T.[am]}$PEPTIDE1,PEPTIDE1,2:R3-6:R3$$$V2.0), the IC50 on SSTR-2 (setting [6]) was more than 10000 nM.
Turning to `CC(C)[C@@H]1NC(=O)[C@H](CCCCN)NC(=O)[C@@H](Cc2c[nH]c3ccccc23)NC(=O)[C@H](Cc2ccc(O)cc2)NC(=O)[C@H](Cc2ccccc2)NCCNC(=O)CCCN([C@@H](Cc2ccccc2)C(=O)N[C@H](C(N)=O)[C@@H](C)O)C1=O` [PTR 3046, cyclo(PheN2^6 -Tyr^7 -DTrp^8 -Lys^9 -Val^10 -PheC3^11)-Thr^12 -NH2] (HELM PEPTIDE1{[O=C([C@H](Cc1ccccc1)NCCN[*:3])[*:2]].Y.[dW].K.V.[O=C([C@H](Cc1ccccc1)N(CCCC(=O)[*:3])[*:1])[*:2]].T.[am]}$PEPTIDE1,PEPTIDE1,1:R3-6:R3$$$V2.0), in the data set on SSTR-2, the “binding to SSTR-2, in words” value was “does not bind”. The IC50 on SSTR-2 (setting [6]) is 500 nM; at SSTR-2 (text summary of Example 85 binding data, read-out: affinity to SSTR-2), more than 1000 nM. Also, the “affinity to human SSTR-5, in words” value at human SSTR-5 is “high affinity”. Moreover, the “inhibition of growth hormone release” value in data set [4] was “not significantly different from saline”. The “decrease in insulin release” value with insulin release (Wister rats, 7 μg/kg subcutaneously, glucose 0.5 g/kg IV, versus control rats, p<0.05) is 43%. The “potency on insulin release relative to Octreotide” value in the data set on insulin release (in vivo, from present study and manufacturer's ED 50 of Octreotide) turned out to be 4 times. Besides, the “inhibition of bombesin induced release of plasma amylase” value in the data set with plasma amylase release (3 μg/kg SC, 90 min.) is reported as 31%; in the data set on plasma amylase release (3 μg/kg SC, 120 min.), 23%; with plasma amylase release (25 μg/kg SC, 90 min.), 60%; in the data set with plasma amylase release (25 μg/kg SC, 120 min.) it was 52%. In addition, the “inhibition of bombesin-stimulated lipase secretion” value in the data set with plasma lipase release (3 μg/kg SC, 90 min.) was found to be 33%; in the data set with plasma lipase release (3 μg/kg SC, 120 min.), 26%; in the data set on plasma lipase release (12.5 μg/kg SC, 90 min.), 30%; in the data set with plasma lipase release (12.5 μg/kg SC, 120 min.), 25%; in the data set with plasma lipase release (25 μg/kg SC, 90 min.), 51%; with plasma lipase release (25 μg/kg SC, 120 min.), 35%.
Take “DPhe^5 -cyclo(Cys^6 -Tyr^7 -DTrp^8 -Lys^9 -Val^10 -Cys^11)-Trp^12 -NH2 [RC-160]”: the IC50 on rat SSTR-5 [1] is 0.2 nM.
Turning to “GnRH: irrelevant peptide tested as negative control sample”, the “binding activity of negative control samples” value in data set [5] was “no binding activity”.
